Data reported in patent US20180110824A1, “Macrocyclic Modulators of the Ghrelin Receptor” (Ocera Therapeutics, Inc., priority 2016, published 2018).
Where two headings read alike, the source gives them in different places.

What was measured:
[1] = molecular target: T1, human ghrelin receptor (hGHS-R1a) (Homo sapiens, UniProt Q92847); test: Aequorin functional assay (ghrelin receptor), CHO-K1 cells co-expressing Gα16 and aequorin; format: cell-based; details: read-out: EC50
T1 construct: host or cells: CHO-K1 co-expressing Gα16 and mitochondrially targeted aequorin
Outline: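 CHO-K1 cells expressing hGHS-R1a, Gα16 and mitochondrial aequorin, loaded overnight at rt with 5 μM coelenterazine, then challenged in DMEM/0.1% BSA pH 7.0 with compound at 0.001–10 μM (DMSO <0.6%).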

[2] = molecular target: T2, hGHS-R1a (Homo sapiens, UniProt Q92847); test: hGHS-R1a receptor agonism and desensitization by FLIPR in HEK293 cells; format: cell-based
T2 construct: expressed in transfected cells; host or cells: HEK293
Description: • 1. Studies by FLIPR (Fluorometric Imaging Plate Reader, Molecular Devices). • 2. Assay performed on HEK293 cells expressing hGHS-R1a. • 3. […] A DC50 value is calculated.

[3] = test system: morphine-delayed gastric emptying and gastrointestinal transit in rats; test: Opioid (morphine)-delayed gastric emptying and gastrointestinal transit in rats; format: in vivo, rat; details: i.v., after morphine 3 mg/kg s.c., FIG. 16B
Source text: Opioid analgesics, such as morphine, are well known to delay gastrointestinal transit which is an important side-effect for this class of drugs. The clinical term for this syndrome is opioid bowel dysfunction (OBD). Importantly, patients recovering from abdominal surgery experience post-operative ileus that is further exacerbated by concomitant opioid therapy for post-surgical pain.
• 1. Rats (male, Sprague-Dawley, 250-300 g) are implanted with jugular vein catheters to accommodate dosing of test articles. • 2. Overnight-fasted rats are administered morphine (3 mg/kg s.c.). • 3. […] Radioactivity (^99mTc) in each tissue isolate is measured as a means of measuring the transit of the meal.

[4] = test system: gastric emptying in fasted rats; test: Gastric emptying in fasted rats (phenol red methylcellulose meal); format: in vivo, rat; details: i.v.
Description: To examine the effects of compounds of the invention in a model for gastroparesis, compounds were evaluated for possible effects on gastric emptying in fasted rats.
GHRP-6 and test samples were dissolved in vehicle of 9% HPBCD/0.9% NaCl. Immediately following oral administration of methylcellulose (2%) containing phenol red (0.05%) (2 mL/rat), test substances or vehicle (9% HPBCD/0.9% NaCl) were each administered intravenously (i.v.) at a dosing volume of 5 mL/kg.
Male Wistar rats were provided by LASCO (A Charles River Licensee Corporation, Taiwan). Space allocation for 6 animals was 45×23×15 cm. Animals were housed in APEC® cages and maintained in a controlled temperature (22° C.-24° C.) and humidity (60% -80%) environment with 12 h light, 12 h dark cycles for at least one week in the laboratory prior to being used. Free access to standard lab chow for rats (Lab Diet, Rodent Diet, PMI Nutrition International, USA) and tap water was granted. All aspects of this work including housing, experimentation and disposal of animals were performed in general accordance with the Guide for the Care and Use of Laboratory Animals (National Academy Press, Washington, D.C., 1996).
Test substances were each administered intravenously to a group of 5 O/N-fasted Wistar derived male rats weighing 200±20 g immediately after methylcellulose (2%) containing phenol red (0.05%) was administered orally at 2 mL/animal. The animals were then sacrificed 15 minutes later. The stomach was immediately removed, homogenized in 0.1 N NaOH (5 mL) and centrifuged. Following protein precipitation by 20% trichloroacetic acid (0.5 mL)and re-alkalization of the supernatant with 0.1 N NaOH, total phenol red remaining in the stomach was determined by a colorimetric method at 560 nm. A 30 percent or more (≥30%) increase in gastric emptying, detected as the decrease in phenol red concentration in the stomach relative to the vehicle control group, is considered significant.
• 1. Overnight-fasted rats (male Wistar, ˜200 g, N=5/group) were given a meal of methylcellulose (2%) by intragastric gavage. The meal was labeled with phenol red (0.05%). • 2. […] Animals were sacrificed 15 minutes later; the stomach was immediately removed and homogenized in 0.1 N NaOH and centrifuged. • 4. Total phenol red remaining in the stomach was quantified by a colorimetric method at 560 nm. • 5. A >30% increase in gastric emptying, detected based on the phenol red concentration in comparison to the control group, is considered significant.

T2 sequence (Q92847 whole entry): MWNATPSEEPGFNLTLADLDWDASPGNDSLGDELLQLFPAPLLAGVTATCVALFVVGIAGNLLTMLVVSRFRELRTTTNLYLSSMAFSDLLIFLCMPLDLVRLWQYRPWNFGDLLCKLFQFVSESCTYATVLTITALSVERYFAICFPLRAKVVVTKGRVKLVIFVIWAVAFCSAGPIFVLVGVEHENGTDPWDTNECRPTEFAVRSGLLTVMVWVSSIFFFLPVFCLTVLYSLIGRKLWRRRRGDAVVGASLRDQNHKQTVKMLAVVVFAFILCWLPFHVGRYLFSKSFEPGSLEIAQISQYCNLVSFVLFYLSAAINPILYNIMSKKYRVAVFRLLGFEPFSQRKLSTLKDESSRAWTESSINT
T1 sequence (Q92847 whole entry): as above

CC1C(=O)NC(Cc2ccc(F)cc2)C(=O)NCCCc2ccccc2O[C@H](C)CNC(C2CC2)C(=O)N1C (stereo partly shown) [compound 298]
EC50 ([1]; Table 4, functional (agonist) activity, TFA salts unless otherwise noted): 1 to 100 nM
EC50 ([1]; activation of hGHS-R1a, FIG. 11): 25 nM
desensitization potency lower than other ghrelin agonists (ghrelin peptide, capromorelin) ([2]; FIG. 13C): ~10 fold
DC50 value less potent than the EC50 value ([2]; FLIPR, HEK293): > 6 fold
agonist type ([2]; FLIPR, HEK293): full agonist
EC50 ([2]; FLIPR, HEK293 cells expressing hGHS-R1a, FIG. 13A): 5 nM
DC50 ([2]; read-out: DC50 (pre-treatment concentration that desensitizes the ghrelin EC100 response by 50%), 3 minutes pre-treatment, FLIPR, HEK293, FIG. 13B): 32 nM
opioid-delayed gastrointestinal transit [3]: effectively reversed in a dose-dependent manner
gastric emptying of a meal in naïve rat ([4]; FIGS. 14A and 14B): caused significant gastric emptying in a dose-dependent manner
potency superior to metoclopramide in gastric emptying ([4]; naïve rats, FIG. 14B): ~100 fold
